Data reported in patent US9512178B2, “Neurogenic brain-derived neurotrophic factor peptides” (Research Foundation for Mental Hygiene, Inc., priority 2012, dated 2016).
Entries after “also recorded” stand apart in the source; their conditions may differ.

Experiments:
[1] = system: primary E18 hippocampal cells; assay: Rescue of H2O2-induced neurotoxicity (LDH assay); type: cell-based, mouse
Experimental: Evaluation of cell death and cell viability was performed using the LDH kit (Promega, Madison Wis., USA), following manufactures instructions. Percentages of cell death and cell viability were plotted separately.
In order to evaluate the potential neuroprotective effect of BDNF peptides, the primary E18 hippocampal cells were challenged with 0, 60, 80 and 100 μM H2O2 for 6 hours, and then cells were washed with culture medium and fresh culture medium was added containing the peptides B-5 or B-3 or BDNF or BDNF plus B-3 (see FIGS. 4A and 4B). After 24 hours, the cell viability was assayed by the LDH method.

[2] = system: mouse E18 hippocampal neurons; assay: Immunocytochemistry of neuronal markers; type: cell-based; conditions: 1 μM, 5 days, vs vehicle
Experimental: For recovering proteins, cells were seeded in 6-well dishes coated with poly-D-lysine (SigmaAldrich, St. Louis, Mo., USA), 50 μg/ml for an overnight, at a density of 1×10^6 cells/well. For immunocytochemistry, cells were seeded onto 5 mm cover slips coated with poly-D-lysine at a density of 7×10^4 cells/well in 100 μl Defined Medium in 96 well plates. The cells were cultured for four days in vitro prior to the beginning of the treatment with the peptides. The treatment with the peptides was done for five days (starting at DIV 4 and finishing at DIV 9). The culture medium was exchanged completely at the beginning of the treatment with a test peptide (at DIV4), and every 72 h until DIV 9.
After 5 days of treatment, cells seeded on cover slips were fixed in 4% paraformaldehyde (Electron Microscopy Sciences, PA, USA) for 30 min at room temperature, and then washed 2× in PBS for storage at 4° C. prior to staining. Cells were permeabilized in 0.2% Triton-X-100 in PBS for 30 min at 25° C. and incubated in blocking buffer (1% BSA w/v, 0.2% Triton-X-100 v/v in PBS) for 60 min at 25° C. The cells were then incubated with primary antibodies at the appropriate dilutions in blocking buffer at 4° C. for 16 h, washed 3×10 min with 0.2% Triton X100 in PBS, and incubated with fluorescently-labeled secondary antibodies diluted in blocking buffer for 1 h at 25° C. in the dark. Cover slips were washed 3×10 min in 0.2% Triton X-100 in PBS and mounted on glass slides with GelMount (Biomeda, Foster City, Calif., USA). The following primary antibodies were used: rabbit polyclonal anti-GFAP (1:500; Sigma-Aldrich, St. Louis, Mo., USA); rabbit polyclonal anti-NFM (1:200; Chemicon/Millipore, Billerica, Mass., USA); mouse monoclonal anti-NeuN (1:300; Millipore, Billerica, Mass., USA); rabbit polyclonal anti-Tuj-1, 0—III-tubulin (1:800; Covance, Emeryville, Calif., USA); mouse monoclonal SMI 52 to the adult isoforms of MAP-2, MAP2a,b (1:1000; Covance, Emeryville, Calif., USA); rabbit polyclonal anti-synapsin I (1:2000; Stressgen, Farmingdale, N.Y., USA); and rabbit monoclonal anti-PSD95 (1:100; Cell Signaling, Danvers, Mass., USA). Secondary goat anti-mouse and anti-rabbit IgGs conjugated with AlexaFluor 594 were used at 1:1000 (Molecular Probes, Carlsbad, Calif., USA). The nuclei were stained with 1 μM TOPRO in PBS (Invitrogen, Grand Island, N.Y., USA). Mounted cover slips were examined using 40× oil immersion objective of a Nikon 90i fluorescent microscope equipped with Nikon C1 three-laser confocal system and a Nikon DS U1 digital camera, and analyzed with EZ-C1 Viewer Image software, Version 6.0. […]

[3] = system: mouse E18 primary hippocampal neurons; assay: Toxicity of the peptides: phase contrast morphology and LDH assay, 5 days treatment; type: cell-based
From the text: To screen these peptides, primary neuronal cell cultures were used from embryonic day 18 (E18) C57BL/6 mouse hippocampus. At the fourth day in vitro (DIV), the culture medium was exchanged with the medium containing the peptides. The primary neuronal cultures were established as taught in the art (see, e.g., Cardenas-Aguayo Mdel, Santa-Olalla et al. 2003, hereby incorporate by reference). Briefly, C57BL/6 time pregnant E18 female mice from Charles River Labs were anesthetized and killed by cervical dislocation following our Institutional Animal Care and Use Committee (IACUC) regulations and approved protocol. Embryos were removed and placed in cold Hibernate A (available from Brain bits, Springfield, Ill., USA), and all of the following steps were performed in ice-cold Hibernate A, under a stereoscopic (dissection) microscope placed in a laminar flow hood. Fetal brains were removed carefully and fore brain were separated. Then, the hippocampus, including the cortex surrounding the area of the hippocampus, was dissected and cut into small pieces using microsurgical scissors. The cut tissue was transferred with number 5 forceps to 15 ml tubes containing 0.1% trypsin in Versene (Invitrogen Life Technologies, Grand Island, N.Y., USA) and incubated for 15 min at 37° C. followed by inactivation with 10% fetal bovine serum (FBS) in Neurobasal complete medium (Neurobasal Medium supplemented with 2×B-27, 0.30% glutamine, and penicillin/streptomycin 0.1 mg/ml and 0.1 U/ml respectively). All medium components were purchased from Invitrogen, Grand Island, N.Y., USA. […]
To study any toxic effect of the peptides, mouse E18 primary hippocampal neurons were treated with the five BDNF peptides individually for up to 5 days at different doses [5 nM, 25 nM, 50 nM (data not shown), 100 nM (0.1 μM), 1000 nM (1 μM), and 10,000 nM (10 μM)]. […] Accordingly, there was no significant change in the viability of cells treated with any of the peptides as evaluated by the lactate dehydrogenase (LDH) assay (see FIG. 2B). […]

[4] = 80 μM H2O2 6 h, then treatment 24 h

Substance | cell viability (LDH) ([1]; 60 μM H2O2 6 h, then treatment 24 h) | cell death (LDH) [1, 4] | cell viability (LDH) [1, 4] | expression of 0-III-tubulin (immunocytochemistry) [2] | expression of MAP2 (immunocytochemistry) [2] | expression of NFM (immunocytochemistry) [2] | expression of NeuN (immunocytochemistry) [2] | potentiation of the neuroprotective effect of BDNF ([1]; after H2O2 exposure, combined with BDNF) | neuroprotective effect of the peptide alone ([1]; after H2O2 exposure, without BDNF) | cell death (LDH assay) vs vehicle treated cells ([3]; 0.1 μM) | cell death (LDH assay) vs vehicle treated cells ([3]; 1 μM)
Ac-I-K-R-G-CONH2 [Peptide B-5] | significantly increased the cell viability | significantly reduced cell death; also recorded: moderate effect in reducing the percentage of cell death | significantly increased the cell viability | induced an increase | induced an increase | induced an increase | induced an increase |  |  |  | 
Ac-S-KKR-CONH2 [Peptide B-3] |  |  |  |  |  |  |  | significantly potentiated; also recorded: potentiates the neuroprotective effect of BDNF | not sufficient to exert a significant effect | significant reduction in cell death | significant reduction in cell death
